The results in this text go back to ChEMBL document CHEMBL3297661, “1-Substituted-5-[(3,5-dinitrobenzyl)sulfanyl]-1H-tetrazoles and their isosteric analogs: A new class of selective antitubercular agents active against drug-susceptible and multidrug-resistant mycobacteria” (Eur J Med Chem, 2014).

Common to all, as to type: functional
Assay [1] concerns Mycobacterium tuberculosis. Kind of assay: Antimycobacterial activity against multidrug-resistant Mycobacterium tuberculosis 234/2005 after 7 days by micromethod.
The test system of assay [2] is Mycobacterium tuberculosis. Kind of assay: Antimycobacterial activity against multidrug-resistant Mycobacterium tuberculosis 9449/2007 after 7 days by micromethod.
Assay [3] has as its system Mycobacterium tuberculosis. Nature of the assay: Antimycobacterial activity against multidrug-resistant Mycobacterium tuberculosis 8666/2010 after 7 days by micromethod.
Assay [4] relates to Mycobacterium tuberculosis. Nature of the assay: Antimycobacterial activity against multidrug-resistant Mycobacterium tuberculosis Praha 1 after 7 days by micromethod.
Assay [5] has as its system Mycobacterium tuberculosis. Nature of the assay: Antimycobacterial activity against multidrug-resistant Mycobacterium tuberculosis Praha 4 after 7 days by micromethod.
The subject of assay [6] is Mycobacterium tuberculosis. Kind of assay: Antimycobacterial activity against multidrug-resistant Mycobacterium tuberculosis Praha 131 after 7 days by micromethod.
In assay [7] the test system is Mycobacterium tuberculosis. Nature of the assay: Antimycobacterial activity against multidrug-resistant Mycobacterium tuberculosis 234/2005 after 14 days by micromethod. The settings on record: 234/2005, 336 h.
For assay [8], the system named is Mycobacterium tuberculosis. Nature of the assay: Antimycobacterial activity against multidrug-resistant Mycobacterium tuberculosis 9449/2007 after 14 days by micromethod. To be noted: 9449/2007, 336 h.
Assay [9] deals with Mycobacterium tuberculosis. Kind of assay: Antimycobacterial activity against multidrug-resistant Mycobacterium tuberculosis 8666/2010 after 14 days by micromethod. The settings on record: 8666/2010, 336 h.
The test system of assay [10] is Mycobacterium tuberculosis. Nature of the assay: Antimycobacterial activity against multidrug-resistant Mycobacterium tuberculosis Praha 1 after 14 days by micromethod. To be noted: Praha 1, 336 h.
In assay [11] the test system is Mycobacterium tuberculosis. Kind of assay: Antimycobacterial activity against multidrug-resistant Mycobacterium tuberculosis Praha 4 after 14 days by micromethod. The settings on record: Praha 4, 336 h.
For assay [12], the system named is Mycobacterium tuberculosis. Kind of assay: Antimycobacterial activity against multidrug-resistant Mycobacterium tuberculosis Praha 131 after 14 days by micromethod. To be noted: Praha 131, 336 h.

Converted amounts (≈) assume the structure as drawn.

On to `NNC(=O)c1ccncc1` [ISONIAZID], for which the MIC in [1] (234/2005, 168 h) is greater than 32 µM; in assay [2] (9449/2007, 168 h) it was 16 µM (≈ 2.19 µg/mL); in assay [3] (8666/2010, 168 h), 32 µM (≈ 4.39 µg/mL); in [4] (Praha 1, 168 h), 8 µM (≈ 1.1 µg/mL); in assay [5] (Praha 4, 168 h) it was 1 µM (≈ 0.137 µg/mL); in assay [6] (Praha 131, 168 h), 0.25 µM (≈ 0.0343 µg/mL).
Take `CC[C@@H](CO)NCCN[C@@H](CC)CO` [ETHAMBUTOL]: the MIC in assay [1] (234/2005, 168 h) was greater than 32 µM; in assay [2] (9449/2007, 168 h), 16 µM (≈ 3.27 µg/mL); in assay [3] (8666/2010, 168 h) it was greater than 8 µM; in assay [4] (Praha 1, 168 h) it was 2 µM (≈ 0.409 µg/mL); in assay [5] (Praha 4, 168 h), 0.5 µM (≈ 0.102 µg/mL); in [6] (Praha 131, 168 h) it was 0.5 µM (≈ 0.102 µg/mL).
Consider `CC1COc2c(N3CCN(C)CC3)c(F)cc3c(=O)c(C(=O)O)cn1c23` (stereo unspecified) [OFLOXACIN], for which the MIC was greater than 32 µM in [1] (234/2005, 168 h); 16 µM (≈ 5.78 µg/mL) in [2] (9449/2007, 168 h); greater than 8 µM in assay [3] (8666/2010, 168 h); greater than 16 µM in assay [4] (Praha 1, 168 h); 0.125 µM (≈ 0.0452 µg/mL) in assay [5] (Praha 4, 168 h); 0.5 µM (≈ 0.181 µg/mL) in assay [6] (Praha 131, 168 h).
Take `CCCCCCn1nnnc1[Se]Cc1cc([N+](=O)[O-])cc([N+](=O)[O-])c1`: the MIC is 1 µM (≈ 0.413 µg/mL) in assay [1] (234/2005, 168 h); 0.5 µM (≈ 0.207 µg/mL) in assay [7]; 1 µM (≈ 0.413 µg/mL) in [2] (9449/2007, 168 h); 0.5 µM (≈ 0.207 µg/mL) in assay [8]; 0.5 µM (≈ 0.207 µg/mL) in assay [3] (8666/2010, 168 h); 0.25 µM (≈ 0.103 µg/mL) in assay [9]. Further, the MIC in assay [4] (Praha 1, 168 h) stood at 1 µM (≈ 0.413 µg/mL); in assay [10], 0.5 µM (≈ 0.207 µg/mL); in assay [5] (Praha 4, 168 h) it was 1 µM (≈ 0.413 µg/mL); in [11] it was 0.5 µM (≈ 0.207 µg/mL); in assay [6] (Praha 131, 168 h), 1 µM (≈ 0.413 µg/mL); in assay [12] it was 0.5 µM (≈ 0.207 µg/mL).
Turning to GENTAMICIN, the MIC is greater than 32 µM in assay [1]; 16 µM in [2]; greater than 8 µM in assay [3]; 16 µM in assay [4]; 2 µM in [5]; 0.5 µM in [6].
On to `CC(C)/N=c1\cc2n(-c3ccc(Cl)cc3)c3ccccc3nc-2cc1Nc1ccc(Cl)cc1` [CLOFAZIMINE], for which the MIC in assay [1] (234/2005, 168 h) was 16 µM (≈ 7.57 µg/mL); in [2] (9449/2007, 168 h), 8 µM (≈ 3.79 µg/mL); in assay [3] (8666/2010, 168 h) it was greater than 8 µM; in assay [4] (Praha 1, 168 h) it was 0.25 µM (≈ 0.118 µg/mL); in assay [5] (Praha 4, 168 h), 0.125 µM (≈ 0.0592 µg/mL); in assay [6] (Praha 131, 168 h), 1 µM (≈ 0.473 µg/mL).
Take `NCC[C@H](O)C(=O)N[C@@H]1C[C@H](N)[C@@H](O[C@H]2O[C@H](CN)[C@@H](O)[C@H](O)[C@H]2O)[C@H](O)[C@H]1O[C@H]1O[C@H](CO)[C@@H](O)[C@H](N)[C@H]1O` [AMIKACIN]: the MIC in assay [1] (234/2005, 168 h) was 32 µM (≈ 18.7 µg/mL); in [2] (9449/2007, 168 h), 32 µM (≈ 18.7 µg/mL); in assay [3] (8666/2010, 168 h), greater than 8 µM; in [4] (Praha 1, 168 h) it was 2 µM (≈ 1.17 µg/mL); in [5] (Praha 4, 168 h), 0.5 µM (≈ 0.293 µg/mL); in [6] (Praha 131, 168 h), greater than 32 µM.
For `O=[N+]([O-])c1cc(C[Se]c2nnnn2C2CCCCC2)cc([N+](=O)[O-])c1`, the MIC in assay [1] (234/2005, 168 h) stood at 1 µM (≈ 0.411 µg/mL); in [7], 0.5 µM (≈ 0.206 µg/mL); in assay [2] (9449/2007, 168 h) it was 1 µM (≈ 0.411 µg/mL); in assay [8] it was 0.5 µM (≈ 0.206 µg/mL); in [3] (8666/2010, 168 h) it was 0.5 µM (≈ 0.206 µg/mL); in assay [9] it was 0.5 µM (≈ 0.206 µg/mL). For the same compound, the MIC amounted to 1 µM (≈ 0.411 µg/mL) in [4] (Praha 1, 168 h); 0.5 µM (≈ 0.206 µg/mL) in [10]; 1 µM (≈ 0.411 µg/mL) in assay [5] (Praha 4, 168 h); 0.5 µM (≈ 0.206 µg/mL) in assay [11]; 1 µM (≈ 0.411 µg/mL) in assay [6] (Praha 131, 168 h); 0.5 µM (≈ 0.206 µg/mL) in assay [12].
With `COc1ccc(-n2nnnc2[Se]Cc2cc([N+](=O)[O-])cc([N+](=O)[O-])c2)cc1`, the minimal inhibitory concentration (MIC) in assay [1] (234/2005, 168 h) turned out to be 1 µM (≈ 0.435 µg/mL); in assay [7], 1 µM (≈ 0.435 µg/mL); in assay [2] (9449/2007, 168 h), 1 µM (≈ 0.435 µg/mL); in [8], 1 µM (≈ 0.435 µg/mL); in assay [3] (8666/2010, 168 h), 0.5 µM (≈ 0.218 µg/mL); in assay [9] it was 0.5 µM (≈ 0.218 µg/mL). Moreover, the MIC stood at 1 µM (≈ 0.435 µg/mL) in assay [4] (Praha 1, 168 h); 0.5 µM (≈ 0.218 µg/mL) in assay [10]; 1 µM (≈ 0.435 µg/mL) in [5] (Praha 4, 168 h); 0.5 µM (≈ 0.218 µg/mL) in [11]; 1 µM (≈ 0.435 µg/mL) in assay [6] (Praha 131, 168 h); 1 µM (≈ 0.435 µg/mL) in [12].
For the compound `CN[C@@H]1[C@H](O[C@H]2[C@H](O[C@H]3[C@H](O)[C@@H](O)[C@H](N=C(N)N)[C@@H](O)[C@@H]3N=C(N)N)O[C@@H](C)[C@]2(O)C=O)O[C@@H](CO)[C@H](O)[C@H]1O` [STREPTOMYCIN], the minimum inhibitory concentration (MIC) in assay [1] (234/2005, 168 h) amounted to 32 µM (≈ 18.6 µg/mL); in assay [2] (9449/2007, 168 h), 64 µM (≈ 37.2 µg/mL); in assay [3] (8666/2010, 168 h) it was 16 µM (≈ 9.31 µg/mL); in [4] (Praha 1, 168 h), 0.5 µM (≈ 0.291 µg/mL); in [5] (Praha 4, 168 h), 1 µM (≈ 0.582 µg/mL); in [6] (Praha 131, 168 h) it was 0.5 µM (≈ 0.291 µg/mL).
For the compound `CO[C@H]1/C=C/O[C@@]2(C)Oc3c(C)c(O)c4c(O)c(c(/C=N/N5CCN(C)CC5)c(O)c4c3C2=O)NC(=O)/C(C)=C\C=C\[C@H](C)[C@H](O)[C@@H](C)[C@@H](O)[C@@H](C)[C@H](OC(C)=O)[C@@H]1C` [RIFAMPIN], the MIC is 16 µM (≈ 13.2 µg/mL) in assay [1] (234/2005, 168 h); 16 µM (≈ 13.2 µg/mL) in assay [2] (9449/2007, 168 h); greater than 8 µM in [3] (8666/2010, 168 h); 1 µM (≈ 0.823 µg/mL) in assay [4] (Praha 1, 168 h); greater than 8 µM in assay [5] (Praha 4, 168 h); 2 µM (≈ 1.65 µg/mL) in assay [6] (Praha 131, 168 h).
Take `O=[N+]([O-])c1cc(CSc2nnnn2C2CCCCC2)cc([N+](=O)[O-])c1`: the minimal inhibitory concentration (MIC) in [1] (234/2005, 168 h) stood at 1 µM (≈ 0.364 µg/mL); in assay [7], 0.5 µM (≈ 0.182 µg/mL); in assay [2] (9449/2007, 168 h), 1 µM (≈ 0.364 µg/mL); in assay [8], 1 µM (≈ 0.364 µg/mL); in assay [3] (8666/2010, 168 h), 0.5 µM (≈ 0.182 µg/mL); in assay [9], 0.5 µM (≈ 0.182 µg/mL). In addition, the MIC in assay [4] (Praha 1, 168 h) came out at 1 µM (≈ 0.364 µg/mL); in assay [10], 1 µM (≈ 0.364 µg/mL); in assay [5] (Praha 4, 168 h), 1 µM (≈ 0.364 µg/mL); in [11], 0.5 µM (≈ 0.182 µg/mL); in assay [6] (Praha 131, 168 h) it was 1 µM (≈ 0.364 µg/mL); in [12], 1 µM (≈ 0.364 µg/mL).
